Measurements published in BindingDB's records for PubMed 37122541 (Emory University, 2023).

Target: rRNA adenine N-6-methyltransferase ErmC (Staphylococcus aureus)
Experiment: Inhibition of Staphylococcus aureus ErmC methyltransferase

Molecule `CC(C)c1ccc(NC(=S)N/N=C/c2cc(Cl)cc(Cl)c2O)cc1` has an IC50 of 450 nM.
